Experimental findings from publication PMC6668024 (Journal of medicinal chemistry, 2018) are described below.

Bounds are passed on as bounds.

Data set [1] in a line: In vivo pharmacokinetics, plasma levels by LC-MS/MS. More on the design: species or system male C57BL/6 mice. The note with it: for parent compound (4 or 3) in plasma after i.v. dosing of the ester: 2 mg/kg intravenously.
For data set [2], the target named is T1, Topo I-DNA cleavage complex (Homo sapiens, UniProt P11387).
T1 sequence (P11387 1-765): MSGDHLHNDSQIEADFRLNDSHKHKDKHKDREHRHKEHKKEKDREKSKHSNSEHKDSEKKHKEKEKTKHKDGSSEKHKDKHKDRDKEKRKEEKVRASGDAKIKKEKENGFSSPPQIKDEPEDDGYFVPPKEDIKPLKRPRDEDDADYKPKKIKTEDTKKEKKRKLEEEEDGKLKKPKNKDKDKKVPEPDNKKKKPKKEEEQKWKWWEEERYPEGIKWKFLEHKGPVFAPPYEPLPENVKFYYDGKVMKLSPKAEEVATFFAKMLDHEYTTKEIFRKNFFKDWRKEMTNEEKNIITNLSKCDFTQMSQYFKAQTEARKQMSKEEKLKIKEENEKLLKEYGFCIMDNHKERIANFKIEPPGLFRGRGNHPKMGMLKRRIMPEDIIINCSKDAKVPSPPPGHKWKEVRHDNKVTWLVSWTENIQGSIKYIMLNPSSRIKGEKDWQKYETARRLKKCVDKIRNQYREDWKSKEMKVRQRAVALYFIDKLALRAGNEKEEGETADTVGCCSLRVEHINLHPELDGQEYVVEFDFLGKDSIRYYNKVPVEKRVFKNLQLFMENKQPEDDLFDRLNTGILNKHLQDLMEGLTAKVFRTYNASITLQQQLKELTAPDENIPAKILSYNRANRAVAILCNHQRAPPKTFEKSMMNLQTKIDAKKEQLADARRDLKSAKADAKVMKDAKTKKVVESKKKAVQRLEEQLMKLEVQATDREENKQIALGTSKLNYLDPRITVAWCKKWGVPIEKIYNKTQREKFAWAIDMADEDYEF
The data set is described as follows: Topo I-mediated DNA cleavage assay. The class given is biochemical. The settings on record: EB-containing gel; for Topo I-mediated DNA cleavage (amount of nicked DNA): 100 μM or 50 μM.

The target in the next data set is T2, Topo I (Homo sapiens, UniProt P11387).
T2 sequence (P11387 1-765): T1 sequence (P11387 1-765)
As to the kind of experiment: Topo I inhibitory activity assay. The class given is biochemical.

The subject of the next data set is TNF-α. As to the kind of experiment: TNF-α in serum, LPS sepsis model. The class given is in vivo, C57BL/6 mice. The settings on record: serum 72 h after LPS.
A further data set has as its system IL-6. As to the kind of experiment: IL-6 in serum, LPS sepsis model. The class given is in vivo, C57BL/6 mice. The settings on record: serum 72 h after LPS.
The conditions of data set [3]: for body weight of treated mice: HepG-2 xenograft mice, treatment for 30 days, doses as in Figure 5.
A further data set deals with MDA-MB-231. As to the kind of experiment: MTT cytotoxicity assay, MDA-MB-231. The class given is cell-based, human. The settings on record: MDA-MB-231, MTT, 48 h. Background: Formazan colour is commonly taken as a measure of viable cells.
A further data set relates to A549. The data set is described as follows: MTT cytotoxicity assay, A549. The class given is cell-based, human. The note with it: 48 h.
The next data set has as its system BEL-7402. The data set is described as follows: MTT cytotoxicity assay, BEL-7402. The class given is cell-based, human. The settings on record: BEL-7402, MTT, 48 h.
A further data set deals with SGC-7901. As to the kind of experiment: MTT cytotoxicity assay, SGC-7901. The class given is cell-based, human. The note with it: SGC-7901, MTT, 48 h.
Another data set relates to SK-N-SH. As to the kind of experiment: MTT cytotoxicity assay, SK-N-SH. The class given is cell-based, human. The settings on record: 48 h.
The test system of another data set is KB. As to the kind of experiment: MTT cytotoxicity assay, KB. The class given is cell-based, human. The settings on record: 48 h.
The next data set has as its system QGY-7703. The data set is described as follows: MTT cytotoxicity assay, QGY-7703. The class given is cell-based, human. The note with it: QGY-7703, MTT, 48 h.
Another data set in a line: Aqueous solubility. The settings on record: parental compounds.
Another data set deals with SMMC-7721. As to the kind of experiment: MTT cytotoxicity assay, SMMC-7721. The class given is cell-based, human. The note with it: SMMC-7721, MTT, 48 h.
The test system of another data set is MCF-7. As to the kind of experiment: MTT cytotoxicity assay, MCF-7. The settings on record: MCF-7, MTT, 48 h. The class given is cell-based, human.
In a further data set the test system is HepG-2. The data set is described as follows: MTT cytotoxicity assay, HepG-2. The class given is cell-based, human. The note with it: HepG-2, MTT, 48 h.
The next data set concerns MGC80-3. The data set is described as follows: MTT cytotoxicity assay, MGC80-3. The class given is cell-based, human. The settings on record: MGC80-3, MTT, 48 h.
The mark [4] stands for this setting: 50 μM and 100 μM, EB-free gel (Figure 3a, 3b).

As for `CC[C@@]1(OC(=O)CNC(=O)CCC(=O)O)C(=O)OCc2c1cc1n(c2=O)Cc2cc3c(ccc4oc(C(C)C)nc43)nc2-1` [Compound 9, (S)-4-((2-((8-Ethyl-2-isopropyl-9,12-dioxo-9,11,12,14-tetrahydro-8H-oxazolo[4,5-f]pyrano[3',4':6,7]indolizno[1,2-b]quinolin-8-yl)oxy)-2-oxoethyl)amino)-4-oxobutanoic acid], in data set [1] (mice), the “parent compound (4 or 3) in plasma after i.v. dosing of the ester” value is recorded as “not detected”. Further, the “concentration in plasma through oral administration” value in data set [1] (single oral administration, mice) is listed as “extremely low”. The “Topo I-mediated DNA cleavage (amount of nicked DNA)” value in [2] is on record as “can increase the amount of nicked DNA”. Moreover, on Topo I (setting [4]), the “Topo I inhibitory activity” value is “weak inhibition”. Besides, the “expression of TNF-α in mouse serum” value in the data set on TNF-α is recorded as “suppressed”. Also, in the data set with IL-6, the “expression of IL-6 in mouse serum” value is reported as “suppressed”. Also, in data set [3], the “body weight of treated mice” value was “no major influence on body weight”. Besides, the “survival of xenograft mice on oral dosing” value in [3] (daily oral dose 5 mg/kg) is “most mice failed to reach the end point”.
As to `CC[C@@]1(O)C(=O)OCc2c1cc1n(c2=O)Cc2cc3ccccc3nc2-1` [CPT, Camptothecin, reference compound], in [2], the “Topo I-mediated DNA cleavage (amount of nicked DNA)” value is recorded as “can increase the amount of nicked DNA”. Further, the “Topo I inhibitory activity” value on Topo I (setting [4]) was “can inhibit Topo I activity”.
As for `CC[C@@]1(O)C(=O)OCc2c1cc1n(c2=O)Cc2cc3c(ccc4oc(C(C)C)nc43)nc2-1` [Compound 4, (S)-8-Ethyl-8-hydroxy-2-isopropyl-8H-oxazolo[4,5-f]pyrano[3',4':6,7]indolizino[1,2-b]quinoline-9,12(11H,14H)-dione], the solubility in “physchem” was less than 2 µg/mL. On Topo I (50 μM, EB-free gel (Figure 4)), the “Topo I inhibitory activity” value is “weak inhibitor”.
“(9S)-9-Ethyl-9-hydroxy-3-isopropyl-2,3-dihydro-[1,3]oxazino[5,6-f]pyrano[3',4':6,7]indolizino[1,2-b]quinoline-1,10,13(9H,12H,15H)-trione [Compound 3]”: the IC50 in the data set with MDA-MB-231 was 1.32 µM; in the data set on A549, 2.17 µM; with BEL-7402 it was greater than 10 µM; with SGC-7901 it was greater than 10 µM; with SK-N-SH, 0.325 µM; in the data set with KB it was 9.76 µM. Further, the IC50 was greater than 10 µM with QGY-7703; greater than 10 µM in the data set with SMMC-7721; 10.8 µM in the data set with MCF-7; 1.11 µM in the data set with HepG-2; 0.39 µM in the data set with MGC80-3. The “Topo I inhibitory activity” value on Topo I (50 μM, EB-free gel (Figure 4)) is recorded as “high”. Further, the aqueous solubility in the data set “Aqueous solubility” was less than 2 µg/mL.
Take `CC[C@@]1(O)C(=O)OCc2c1cc1n(c2=O)Cc2cc3c(CN(C)C)c(O)ccc3nc2-1` [Topotecan, reference compound]: in data set [2], the “Topo I-mediated DNA cleavage (amount of nicked DNA)” value is reported as “can increase the amount of nicked DNA”.
For `CC[C@@]1(OC(=O)CNC(=O)CCC(=O)O)C(=O)OCc2c1cc1n(c2=O)Cc2cc3c4c(ccc3nc2-1)OC(C(C)C)NC4=O` (stereo partly drawn) [Compound 11, 4-((2-(((9S)-9-Ethyl-3-isopropyl-1,10,13-trioxo-1,2,3,9,10,12,13,15-octahydro-[1,3]oxazino[5,6-f]pyrano[3',4':6,7]indolizino[1,2-b]quinolin-9-yl)oxy)-2-oxoethyl)amino)-4-oxobutanoic acid], the “parent compound (4 or 3) in plasma after i.v. dosing of the ester” value in data set [1] (mice) was “very low concentration”. Also, in data set [1] (mouse, in vivo, po), the “concentration in plasma through oral administration” value is “extremely low”. In addition, the “Topo I-mediated DNA cleavage (stabilization of cleavage complex)” value in [2] (50 μM) was “failed to stabilize Topo I-DNA cleavage complex”. Further, the “Topo I inhibitory activity” value at Topo I (setting [4]) is “almost inactive”. For the same compound, the “expression of TNF-α in mouse serum” value with TNF-α was “suppressed”. In addition, in the data set with IL-6, the “expression of IL-6 in mouse serum” value is “suppressed”. Moreover, the “body weight of treated mice” value in [3] is “no major influence on body weight”. In addition, the “side effects, pathological anatomy of viscera” value in [3] (oral administration compared with the i.v. dosage) is given as “increases the occurrence of gastrointestinal flatulence”.

One may read the solubility as the concentration that dissolves in the medium under given conditions. As usually defined, the IC50 is the concentration needed to halve the response being measured. Broadly, the aqueous solubility is the dissolved amount per volume that the medium holds.
